PMC8395040 (International Journal of Molecular Sciences, 2021)

Columns and labels:
[1] = test system: HCT116; assay: MTT cytotoxicity assay, HCT116; type: cell-based; settings: Homo sapiens, HCT-116, 72 h, MTT; for cytotoxicity at 50 µM: read-out: % Cytotoxicity (50 µM) HCT116; for IC50: 0.05–50 µM
Procedure: (§1) Cytotoxicity assays were performed by using the MTT reduction method as described previously. Briefly, cancer cell lines were plated in flat-bottom 96-well plates at a cell concentration of 5 × 10^3 cells/well for the fastest growing lines, such as HEK293 and HT29 cells and 1 × 10^4 cells/well for more slowly growing lines, such as HCT116, H1975, BxPC-3, AsPC-1, B16-F10 and DAOY. Then, cells were incubated with the synthesised compounds at different concentrations (from 0.05 to 50 µM) in 200 µL with 10% FBS in RPMI 1640 or DMEM F12 culture medium at 37 °C for 72 h. Later, 10 µL of MTT were added at a final concentration of 0.5 mg/mL, incubated at 37 °C for 4 h, and then solubilised with 10% sodium dodecyl sulphate (SDS) in 0.1 mM HCl and incubated overnight at 37 °C. Formazan formation was measured at 570 nm in a multiwell plate reader (Cytation 5, Biotek Instruments, Winooski, VT, USA). Three independent biological replicates were performed.

[2] = test system: HT29; assay: MTT cytotoxicity assay, HT29; type: cell-based; settings: Homo sapiens, HT-29, 72 h, MTT; for cytotoxicity at 50 µM: read-out: % Cytotoxicity (50 µM) HT29; for IC50: 0.05–50 µM
Procedure: as §1

[3] = test system: Daoy; assay: MTT cytotoxicity assay, Daoy; type: cell-based, human; settings: Homo sapiens, Daoy, 72 h, MTT; for cytotoxicity at 50 µM: read-out: % Cytotoxicity (50 µM) DAOY;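 as to all read-outs here: viability read as formazan absorbance at 570 nm after MTT reduction, three independent biological replicates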
[4] = test system: HT29; assay: CFSE proliferation assay, HT29; type: cell-based, human; settings: 19 µM, 48 h
Procedure: HT29 and HEK293 cells were resuspended at 1 × 10^6/mL in DMEM F12 without FBS. A 5 mM CFSE stock solution carboxyfluorescein diacetate succinimidyl ester (Cell Proliferation Kit, Life Technologies, Carlsbad, CA, USA) in DMSO was added to a final concentration of 5 µM and incubated at 37 °C for 15 min protected from light. At the end of the incubation period, the cells were immediately washed twice in cold PBS 1X/no-FBS. Cells were washed three times in PBS 1×/10%-FBS and resuspended in the same medium and plated in 12-well plates at a density of 1 × 10^5 cells/200 µL medium and grown overnight at 37 °C in a 5% CO2 humidified atmosphere. […] The cells were collected and then analysed by flow cytometry (BD; FACScanto II, Mountain View, CA, USA) and data were processed using FCS Express v6 software. Two independent biological replicates were performed.

[5] = test system: GLI1-responsive luciferase reporter in HCT116 cells; assay: HH-dependent GLI luciferase reporter assay in HCT116; type: cell-based, human; settings: 24 h, 4s 1.5 µM, vismodegib 1 µM; for activation induced by the agonist purmorphamine: purmorphamine 20 µM
Procedure: Luciferase and renilla activity were assayed with a dual-luciferase assay system according to the manufacturer’s instructions (Cignal Reporter Gli-luciferase, ADN, Qiagen, Hilden, Germany). Results were expressed as luciferase/renilla ratios and represent the mean of triplicate values in one assay.
Supplemental Figure S2: Luciferase reporter activity dependent on the Hh pathway.
This assay was performed in HCT116 cells stably transformed with a Gli responsive luciferase reporter gene and a renilla luciferase gene (normalization control), treated for 24 […]
renilla activity were assayed with the dual-luciferase assay system Cignal Reporter Gli - luciferase (ADN, Qiagen). Results are expressed as luciferase/renilla activity ratios and represent the mean of triplicate values from one assay. […]
(1 picture or pasted object on this page, not shown here)

[6] = molecular target: T1, human SMO D473H mutant (Homo sapiens, UniProt Q99835, D473H); assay: BODIPY-cyclopamine displacement assay, SMO D473H; type: binding
T1 construct: Myc; expressed in transfected cells; host or cells: HEK293T
T1 sequence (Q99835 28-787 D473H): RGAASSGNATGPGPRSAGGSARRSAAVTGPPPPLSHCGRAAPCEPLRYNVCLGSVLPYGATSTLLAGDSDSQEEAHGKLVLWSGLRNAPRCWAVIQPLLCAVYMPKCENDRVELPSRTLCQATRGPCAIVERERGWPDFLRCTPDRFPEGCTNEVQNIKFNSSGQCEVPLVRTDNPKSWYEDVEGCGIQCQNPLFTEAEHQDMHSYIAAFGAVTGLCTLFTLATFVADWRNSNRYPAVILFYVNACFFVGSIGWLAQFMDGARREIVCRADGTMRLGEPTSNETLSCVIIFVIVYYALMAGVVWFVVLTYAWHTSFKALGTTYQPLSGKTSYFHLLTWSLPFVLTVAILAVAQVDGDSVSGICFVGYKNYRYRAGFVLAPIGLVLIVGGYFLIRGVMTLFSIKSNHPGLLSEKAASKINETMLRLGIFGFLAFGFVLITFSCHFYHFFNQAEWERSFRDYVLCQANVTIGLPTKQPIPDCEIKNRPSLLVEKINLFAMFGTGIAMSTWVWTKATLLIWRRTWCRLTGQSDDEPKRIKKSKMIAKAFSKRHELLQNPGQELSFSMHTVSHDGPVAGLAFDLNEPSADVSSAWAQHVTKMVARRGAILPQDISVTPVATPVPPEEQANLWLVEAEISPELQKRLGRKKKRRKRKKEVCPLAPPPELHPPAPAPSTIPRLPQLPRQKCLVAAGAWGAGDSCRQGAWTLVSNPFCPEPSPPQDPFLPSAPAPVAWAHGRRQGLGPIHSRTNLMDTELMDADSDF
Procedure: HEK293T cells were transfected with genes encoding human WT SMO tagged with Myc-DDK or human SMO D473H mutant tagged with Myc. Cells were washed in PBS supplemented with 0.5% FBS, fixed in 4% paraformaldehyde in PBS for 10 min, and incubated for 6 h at 37 °C in the same medium supplemented with BODIPY-cyclopamine (5 nM), with and without 4s at different concentrations ([…]). The cells were permeabilised with 0.2% Triton X-100 (Sigma, St. Louis, MO, USA). Dako Fluorescent Mounting solution (Dako, Carpinteria, CA, USA) was used as mounting medium and the Hoechst reagent for staining of cell nuclei. BODIPY (green) and Hoechst (blue) signals were analysed in three representative fields per coverslip (×20 magnification). Data were expressed as the percentage of BC incorporation observed with BC alone.

[7] = test system: B16F10 cells; assay: MTS viability assay, B16F10; type: cell-based, murine; settings: Mus musculus, B16-F10, 24 h
Procedure: In the case of experiments using nanoemulsions, cell proliferation was evaluated after treatments. To do this the complete medium containing treatments was removed and replaced with fresh culture medium supplemented with 10% tetrazolium compound of the MTS® assay (CellTiter 96® Aqueous Non-Radioactive Cell Proliferation Assay), according to the manufacturer’s instructions (Promega, Madison, WI, USA). The soluble formazan produced by live cells was detected as absorbance at 490 nm on a Multiscan Reader (Synergy-H4, Biotek). Background values contributed by excess of cell debris and bubbles were measured at 650 nm and were subtracted.
Figure 7 Effect of 4s-NEM on the viability of cancer (B16F10) and non-cancer (HEK293) cells in vitro. Cells were treated with 4s-NEM at different concentrations for 24 h and their viability was evaluated using the MTS assay; SDS, the vehicle for NEM, and 4s free in the culture medium were used as controls. The IC50 was determined in each case. (A) Effect of 4s-NEM on B16F10 cells. Six independent experiments were performed in triplicate. Results are shown as the mean ± SEM. (B) Effect of 4s-NEM on HEK293 cells. Results are shown as the mean ± SEM of three separate experiments. (***) p < 0.001, (*) p < 0.05 vs. control, ns = non-significant. Data analysis was performed via a 2-way ANOVA Tukey’s multiple comparisons test.

SMILES	cytotoxicity at 50 µM [1] [%]	IC50 [1] [µM]	cytotoxicity at 50 µM [2] [%]	IC50 [2] [µM]	cytotoxicity at 50 µM [3] [%]	HT29 cell proliferation (CFSE) [4]	basal GLI1 transcription activity [5]	activation induced by the agonist purmorphamine [5]	concentration above which toxic to SMO-D473H cells ([6]; HEK293T expressing SMO-D473H)	binding to the SMO-D473H mutant receptor ([6]; HEK293T expressing SMO-D473H, up to 5 µM)	decrease of binding affinity with SMO-D473H mutant compared to WT SMO ([6]; suggested, no IC50 determinable)	IC50 [7] [µM]	melting point [°C]	IC50 ([3]; 0.05–50 µM) [µM]
CCCCCCn1cnc2c(-c3ccc(OC(F)(F)F)cc3)nc(N3CCN(c4ccncc4)CC3)nc21 [Compound 4s, 9-Hexyl-2-(4-(pyridin-4-yl)piperazin-1-yl)-6-(4-(trifluoromethoxy)phenyl)-9H-purine]	99 ± 0.4	1.3 ± 0.4	25 ± 2.7	15 ± 1.2	98 ± 0.3	significantly reduced HT29 cell proliferation	did not affect basal GLI1 transcription activity	effectively reduced the activation	above 5 µM	dose-dependent inhibition of binding	about 25%	27.5	153 to 155	
CS(=O)(=O)c1ccc(C(=O)Nc2ccc(Cl)c(-c3ccccn3)c2)c(Cl)c1 [Vismodegib, reference compound]	< 50	> 50	< 50	> 50	< 50	less effect on reducing proliferation than 4s	did not affect basal GLI1 transcription activity	effectively reduced the activation						> 50
